From patent US7968542B2, “Thiophene compounds and thrombopoietin receptor activators” (Nissan Chemical Industries, Ltd., priority 2005, dated 2011)

Tested on: Human bone marrow CD34+ cells
Assay: Megakaryocyte colony stimulating activity (megakaryocyte colony forming method)
Type: cell-based
Details: 11 days
Experimental: The action of the compounds of Synthetic Examples 1 to 43 of the present invention and Reference Synthetic Examples 29 and 30 on the proliferation, differentiation and maturation of megakaryocyte cells was measured by the megakaryocyte colony forming method using human bone marrow cells. Human bone marrow CD34^+ cells (Cambrex Bio Science Walkersville) were incubated on 2-well chamber slide for 11 days in a CO2 incubator (5% CO2, 37° C.) using MegaCult™-C (StemCell Technologies) containing 0.1% (v/v) of the compounds of Synthetic Examples dissolved in dimethyl sulfoxide. After dehydration and fixation, the cells were stained with an anti-glycoprotein IIb/IIIa antibody in accordance with the instruction by the manufacturer. The colonies consisting of at least 8 stained megakaryocyte cells in each well were counted under a microscope. The megakaryocyte colony counts in at least 2 wells were averaged.

Compound: CNC(=O)c1ccc(C(=O)NN=C(C)c2csc(-c3ccc(Cl)cc3)c2O)s1 [Synthetic Ex. 27, 5-{1-[5-(4-chlorophenyl)-4-hydroxythiophen-3-yl]ethylidenehydrazinocarbonyl}thiophene-2-carboxylic acid methylamide]
- Megakaryocyte colony count (drug concentration 1 μg/mL): 201

Compound: CC(=NNC(=O)c1ccc(C(=O)NC(C)C)s1)c1csc(-c2ccc(C)c(C)c2)c1O [Synthetic Ex. 28, 5-{1-[5-(3,4-dimethylphenyl)-4-hydroxythiophen-3-yl]ethylidenehydrazinocarbonyl]thiophene-2-carboxylic acid isopropylamide]
- Megakaryocyte colony count (drug concentration 1 μg/mL): 105

Compound: CC(=NNC(=O)c1ccc(C(=O)NCc2ccccn2)s1)c1csc(-c2ccc(Cl)c(Cl)c2)c1O [Synthetic Ex. 29, 5-{1-[5-(3,4-dichlorophenyl)-4-hydroxythiophen-3-yl]ethylidenehydrazinocarbonyl}thiophene-2-carboxylic acid 2-picolylamide]
- Megakaryocyte colony count (drug concentration 0.1 μg/mL): 62

Compound: CC(=NNC(=O)c1ccc(C(=O)NCc2ccncc2)s1)c1csc(-c2ccc(Cl)c(Cl)c2)c1O [Synthetic Ex. 30, 5-{1-[5-(3,4-dichlorophenyl)-4-hydroxythiophen-3-yl]ethylidenehydrazinocarbonyl}thiophene-2-carboxylic acid 4-picolylamide]
- Megakaryocyte colony count (drug concentration 0.1 μg/mL): 145
- Megakaryocyte colony count (drug concentration 1 μg/mL): 271

Compound: CC(=NNC(=O)c1ccc(C(=O)NCCc2ccncc2)s1)c1csc(-c2ccc(Cl)c(Cl)c2)c1O [Synthetic Ex. 31, 5-{1-[5-(3,4-dichlorophenyl)-4-hydroxythiophen-3-yl]ethylidenehydrazinocarbonyl}thiophene-2-carboxylic acid 2-(pyridin-4-yl)ethylamide]
- Megakaryocyte colony count (drug concentration 0.1 μg/mL): 70
- Megakaryocyte colony count (drug concentration 1 μg/mL): 136

Compound: CC(=NNC(=O)c1ccc(C(=O)NCc2ccnn2C)s1)c1csc(-c2ccc(Cl)c(Cl)c2)c1O [Synthetic Ex. 32, 5-{1-[5-(3,4-dichlorophenyl)-4-hydroxythiophen-3-yl]ethylidenehydrazinocarbonyl}thiophene-2-carboxylic acid (1-methyl-1H-pyrazol-5-ylmethyl)amide]
- Megakaryocyte colony count (drug concentration 0.1 μg/mL): 55

Compound: CC(=NNC(=O)c1ccc(C(=O)NCc2cc(C)on2)s1)c1csc(-c2ccc(Cl)c(Cl)c2)c1O [Synthetic Ex. 33, 5-{1-[5-(3,4-dichlorophenyl)-4-hydroxythiophen-3-yl]ethylidenehydrazinocarbonyl}thiophene-2-carboxylic acid (5-methylisoxazol-3-ylmethyl)amide]
- Megakaryocyte colony count (drug concentration 0.1 μg/mL): 53

Compound: CC(=NNC(=O)c1ccc(C(=O)NCc2cnc(C)cn2)s1)c1csc(-c2ccc(Cl)c(Cl)c2)c1O [Synthetic Ex. 34, 5-{1-[5-(3,4-dichlorophenyl)-4-hydroxythiophen-3-yl]ethylidenehydrazinocarbonyl}thiophene-2-carboxylic acid (5-methylpyrazin-2-ylmethyl)amide]
- Megakaryocyte colony count (drug concentration 0.1 μg/mL): 50

Compound: CC(=NNC(=O)c1ccc(C(=O)NCc2ccno2)s1)c1csc(-c2ccc(Cl)c(Cl)c2)c1O [Synthetic Ex. 35, 5-{1-[5-(3,4-dichlorophenyl)-4-hydroxythiophen-3-yl]ethylidenehydrazinocarbonyl}thiophene-2-carboxylic acid (isoxazol-5-ylmethyl)amide]
- Megakaryocyte colony count (drug concentration 0.1 μg/mL): 135
- Megakaryocyte colony count (drug concentration 1 μg/mL): 153

Compound: COc1cc(CNC(=O)c2ccc(C(=O)NN=C(C)c3csc(-c4ccc(Cl)c(Cl)c4)c3O)s2)on1 [Synthetic Ex. 36, 5-{1-[5-(3,4-dichlorophenyl)-4-hydroxythiophen-3-yl]ethylidenehydrazinocarbonyl}thiophene-2-carboxylic acid (3-methoxyisoxazol-5-ylmethyl)amide]
- Megakaryocyte colony count (drug concentration 0.1 μg/mL): 102
- Megakaryocyte colony count (drug concentration 1 μg/mL): 135

Compound: CC(=NNC(=O)c1ccc(C(=O)NCc2cc(C)n(C)n2)s1)c1csc(-c2ccc(Cl)c(Cl)c2)c1O [Synthetic Ex. 37, 5-{1-[5-(3,4-dichlorophenyl)-4-hydroxythiophen-3-yl]ethylidenehydrazinocarbonyl}thiophene-2-carboxylic acid (1,5-dimethyl-1H-pyrazol-3-ylmethyl)amide]
- Megakaryocyte colony count (drug concentration 0.1 μg/mL): 81

Compound: CC(=NNC(=O)c1ccc(C(=O)NCc2cnccn2)s1)c1csc(-c2ccc(Cl)c(Cl)c2)c1O [Synthetic Ex. 38, 5-{1-[5-(3,4-dichlorophenyl)-4-hydroxythiophen-3-yl]ethylidenehydrazinocarbonyl}thiophene-2-carboxylic acid (pyrazin-2-ylmethyl)amide]
- Megakaryocyte colony count (drug concentration 0.1 μg/mL): 66

Compound: CC(=NNC(=O)c1ccc(C(=O)NCc2cc[n+]([O-])cc2)s1)c1csc(-c2ccc(Cl)c(Cl)c2)c1O [Synthetic Ex. 39, 4-[{5-(2-[1-{5-(3,4-dichlorophenyl)-4-hydroxythiophen-3-yl}ethylidene]hydrazinocarbonyl)thiophene-2-carboxamido}methyl]pyridine 1-oxide]
- Megakaryocyte colony count (drug concentration 0.1 μg/mL): 86

Compound: CC(=NNC(=O)c1ccc(C(=O)NCCCc2ccncc2)s1)c1csc(-c2ccc(Cl)c(Cl)c2)c1O [Synthetic Ex. 40, 5-{1-[5-(3,4-dichlorophenyl)-4-hydroxythiophen-3-yl]ethylidenehydrazinocarbonyl}thiophene-2-carboxylic acid 3-(pyridin-4-yl)propylamide]
- Megakaryocyte colony count (drug concentration 0.1 μg/mL): 70

Compound: CC(=NNC(=O)c1ccc(C(=O)NCc2cncn2C)s1)c1csc(-c2ccc(C(F)(F)F)cc2)c1O [Synthetic Ex. 41, 5-{1-[5-(4-trifluoromethylphenyl)-4-hydroxythiophen-3-yl]ethylidenehydrazinocarbonyl}thiophene-2-carboxylic acid (1-methyl-1H-imidazol-5-ylmethyl)amide]
- Megakaryocyte colony count (drug concentration 0.1 μg/mL): 41

Compound: CC(=NNC(=O)c1ccc(C(=O)N2CCC(O)C2)s1)c1csc(-c2ccc(Cl)c(Cl)c2)c1O (stereo not drawn) [Synthetic Ex. 42, 5-(3-hydroxypyrrolidine-1-carbonyl)thiophene-2-carboxylic acid {1-[5-(3,4-dichlorophenyl)-4-hydroxythiophen-3-yl]ethylidene}hydrazide]
- Megakaryocyte colony count (drug concentration 0.1 μg/mL): 90

Compound: CC(=NNC(=O)c1ccc(C(=O)N2CCC(O)C2)s1)c1csc(-c2ccc(C(F)(F)F)cc2)c1O (stereo not drawn) [Synthetic Ex. 43, 5-(3-hydroxypyrrolidine-1-carbonyl)thiophene-2-carboxylic acid {1-[5-(4-trifluoromethylphenyl)-4-hydroxythiophen-3-yl]ethylidene}hydrazide]
- Megakaryocyte colony count (drug concentration 0.1 μg/mL): 109
